One molecule from patent publication US10485236B2, “Triazole derivatives, intermediates thereof and their use as fungicides” (Bayer CropScience Aktiengesellschaft, priority 2015, dated 2019) can be followed below.

In assay [1] the test system is Venturia inaequalis. Kind of assay: Example H: in vivo preventive test on Venturia test (apples). The conditions noted are these: 240 h, 100 ppm of active ingredient, preventive spray, evaluated 10 days after inoculation, read-out: efficacy. How it is done:
Example H: In Vivo Preventive Test on Venturia Test (Apples) [table] To produce a suitable preparation of active compound, 1 part by weight of active compound is mixed with the stated amounts of solvent and emulsifier, and the concentrate is diluted with water to the desired concentration. To test for preventive activity, young plants are sprayed with the preparation of active compound at the stated rate of application. After the spray coating has dried on, the plants are inoculated with an aqueous conidia suspension of the causal agent of apple scab (Venturia inaequalis) and then remain for 1 day in an incubation cabinet at approximately 20° C. and a relative atmospheric humidity of 100%. The plants are then placed in a greenhouse at approximately 21° C. and a relative atmospheric humidity of approximately 90%. The test is evaluated 10 days after the inoculation. 0% means an efficacy which corresponds to that of the untreated control, while an efficacy of 100% means that no disease is observed.

For assay [2], the system named is Septoria tritici. The experiment in a line: Example C: in vivo preventive test on Septoria tritici (leaf spot on wheat). The conditions noted are these: Zymoseptoria tritici, 576 h; 500 ppm of active ingredient; wheat plants, preventive spray; evaluated 24 days after inoculation; read-out: efficacy. The method, then: Example C: In Vivo Preventive Test on Septoria tritici (Leaf Spot on Wheat) [table] The active ingredients are made soluble and homogenized in a mixture of Dimethyl sulfoxide/Acetone//Tween® 80 and then diluted in water to the desired concentration. The young plants of wheat are treated by spraying the active ingredient prepared as described above. Control plants are treated only with an aqueous solution of Acetone/Dimethyl sulfoxide/Tween® 80. After 24 hours, the plants are contaminated by spraying the leaves with an aqueous suspension of Septoria tritici spores. The contaminated wheat plants are incubated for 72 hours at 18° C. and at 100% relative humidity and then for 21 days at 20° C. and at 90% relative humidity. The test is evaluated 24 days after the inoculation. 0% means an efficacy which corresponds to that of the control plants while an efficacy of 100% means that no disease is observed.

For assay [3], the system named is Alternaria solani. The experiment in a line: Example F: in vivo preventive test on Alternaria test (tomatoes). The note with it: 72 h, 100 ppm of active ingredient, preventive spray, evaluated 3 days after inoculation, read-out: efficacy. The method, then:
Example F: In Vivo Preventive Test on Alternaria Test (Tomatoes) [table] To produce a suitable preparation of active compound, 1 part by weight of active compound is mixed with the stated amounts of solvent and emulsifier, and the concentrate is diluted with water to the desired concentration. To test for preventive activity, young plants are sprayed with the preparation of active compound at the stated rate of application. After the spray coating has dried on, the plants are inoculated with an aqueous spore suspension of Alternaria solani. The plants are then placed in an incubation cabinet at approximately 20° C. and a relative atmospheric humidity of 100%. The test is evaluated 3 days after the inoculation. 0% means an efficacy which corresponds to that of the untreated control while an efficacy of 100% means that no disease is observed.

Assay [4] has as its system Phakopsora pachyrhizi. Kind of assay: Example G: in vivo preventive test on Phakopsora test (soybeans). The note with it: 168 h, 100 ppm of active ingredient, preventive spray, evaluated 7 days after inoculation, read-out: efficacy. How it is done:
Example G: In Vivo Preventive Test on Phakopsora Test (Soybeans) [table] To produce a suitable preparation of active compound, 1 part by weight of active compound is mixed with the stated amounts of solvent and emulsifier, and the concentrate is diluted with water to the desired concentration. To test for preventive activity, young plants are sprayed with the preparation of active compound at the stated rate of application. After the spray coating has dried on, the plants are inoculated with an aqueous spore suspension of the causal agent of soybean rust (Phakopsora pachyrhizi) and stay for 24 h without light in an incubation cabinet at approximately 24° C. and a relative atmospheric humidity of 95%. The plants remain in the incubation cabinet at approximately 24° C. and a relative atmospheric humidity of approximately 80% and a day/night interval of 12 h. The test is evaluated 7 days after the inoculation. 0% means an efficacy which corresponds to that of the untreated control, while an efficacy of 100% means that no disease is observed.

In assay [5] the test system is Puccinia triticina. Kind of assay: Example K: in vivo preventive Puccinia triticina test (wheat). The note with it: 192 h, 500 ppm of active ingredient, preventive spray, evaluated 8 days after inoculation, read-out: efficacy. How it is done: Example K: In Vivo Preventive Puccinia Triticina Test (Wheat)
To produce a suitable preparation of active compound, 1 part by weight of active compound or active compound combination is mixed with the stated amounts of solvent and emulsifier, and the concentrate is diluted with water to the desired concentration.
To test for preventive activity, young plants are sprayed with the preparation of active compound or active compound combination at the stated rate of application.
After the spray coating has been dried, the plants are sprayed with a spore suspension of Puccinia triticina. The plants remain for 48 hours in an incubation cabinet at approximately 20° C. and a relative atmospheric humidity of approximately 100%.
The plants are placed in the greenhouse at a temperature of approximately 20° C. and a relative atmospheric humidity of approximately 80%.
The test is evaluated 8 days after the inoculation. 0% means an efficacy which corresponds to that of the untreated control, while an efficacy of 100% means that no disease is observed.

In assay [6] the test system is Uromyces appendiculatus. Kind of assay: Example E: in vivo preventive test on Uromyces appendiculatus (bean rust). The conditions noted are these: 264 h, 500 ppm of active ingredient, bean plants, preventive spray, evaluated 11 days after inoculation, read-out: efficacy.
Assay [7] has as its system Sphaerotheca fuliginea. The experiment in a line: Example D: in vivo preventive test on Sphaerotheca fuliginea (powdery mildew on cucurbits). The conditions noted are these: Podosphaera fuliginea, 360 h; 500 ppm of active ingredient; gherkin plants, preventive spray; evaluated 15 days after inoculation; read-out: efficacy.

The structures appear in SMILES notation.

Turning to `CC(O)(Cn1cncn1)c1cnc(Oc2ccc(Cl)cc2)cc1C(F)(F)F` (stereo not shown) [I.02, 2-[6-(4-chlorophenoxy)-4-(trifluoromethyl)-3-pyridyl]-1-(1,2,4-triazol-1-yl)propan-2-ol], the pest or weed control at 100 ppm in assay [1], in assay [3] and in assay [4] was 90 to 100% in each case. The pest or weed control at 500 ppm in assay [2] was 80 to 89%; in assay [5], 90 to 100%; in assay [6], 90 to 100%; in assay [7], 90 to 100%.
